Values joined by “and” are separate entries in the source; they are usually repeats but may differ in a detail not shown here. Equal values may be shown once. Read-outs that look alike come from different tables or passages of the source.
Tests used:
[1] = test system: ECHCG; assay type: in vivo, Echinochloa crus-galli
Summary of the method: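 Foliar spray, 187 L/ha, track sprayer; 1.25% v/v COC, 8.1% acetone, 0.25% DMSO in spray. Plants at 1st–4th true leaf, greenhouse 29/26 °C. Visual injury 0–100% (0 = none, 100 = complete kill) at ~3 wk after treatment; expected mixture response by Colby.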

[2] = test system: CYPRO; experiment: In-water applied weed control, transplanted paddy rice (greenhouse); assay type: in vivo, Cyperus rotundus
Description: Weed seeds or nutlets of the desired test plant species were planted in puddled soil (mud) prepared by mixing a shredded, non-sterilized mineral soil (50.5 percent silt, 25.5 percent clay, and 24 percent sand, with a pH of about 7.6 and an organic matter content of about 2.9 percent) and water at a 1:1 volumetric ratio. The prepared mud was dispensed in 365 mL aliquots into 16-ounce (oz.) non-perforated plastic pots with a surface area of 86.59 square centimeters (cm^2) leaving a headspace of 3 centimeters (cm) in each pot. Rice seeds were planted in Sun Gro MetroMix® 306 planting mixture, which typically has a pH of 6.0 to 6.8 and an organic matter content of about 30 percent, in plastic plug trays. Seedlings at the second or third leaf stage of growth were transplanted into 860 mL of mud contained in 32-oz. non-perforated plastic pots with a surface area of 86.59 cm^2 4 days prior to herbicide application. The paddy was created by filling the headspace of the pots with 2.5 to 3 cm of water. When required to ensure good germination and healthy plants, a fungicide treatment and/or other chemical or physical treatment was applied. The plants were grown for 4-22 days in a greenhouse with an approximate 14 h photoperiod which was maintained at about 29° C. during the day and about 26° C. during the night. Nutrients were added as Osmocote® (17:6:10, N:P:K+minor nutrients) at 2 grams (g) per 16-oz. pot and 4 g per 32-oz. pot. Water was added on a regular basis to maintain the paddy flood, and supplemental lighting was provided with overhead metal halide 1000-Watt lamps as necessary. The plants were employed for testing when they reached the first through fourth true leaf stage.
Treatments consisted of the acid or esters of 4-amino-3-chloro-5-fluoro-6-(4-chloro-2-fluoro-3-methoxy-phenyl)pyridine-2-carboxylic acid (compound A) each formulated as an SC (suspension concentrate) and various herbicidal components alone and in combination. Forms of compound A were applied on an acid equivalent basis.
Other […] components were applied on an active ingredient basis and consisted of etofenprox (technical grade material) and sulfoxaflor formulated as Sulfoxaflor WG.
Treatment requirements for each compound or herbicidal component were calculated based upon the rates being tested, the concentration of active ingredient or acid equivalent in the formulation, an application volume of 2 mL per component per pot, and an application area of 86.59 cm^2 per pot.
For formulated compounds, a measured amount was placed in an individual 100 or 200 mL glass vial and was dissolved in a volume of 1.25% (v/v) AgriDex® crop oil concentrate to obtain application solutions.
For technical grade compounds, a weighed amount was placed in an individual 100 to 200 mL glass vial and was dissolved in a volume of acetone to obtain concentrated stock solutions.
Applications were made by injecting with a pipetter appropriate amounts of the application solutions, individually and sequentially, into the aqueous layer of the paddy. Control plants were treated in the same manner with the solvent blank. Applications were made so that all treated plant material received the same concentrations of acetone and crop oil concentrate.
The treated plants and control plants were placed in a greenhouse as described above and water was added as needed to maintain a paddy flood. After approximately 3 weeks the condition of the test plants as compared with that of the untreated plants was determined visually and scored on a scale of 0 to 100 percent where 0 corresponds to no injury or growth inhibition and 100 corresponds to complete kill.
Colby's equation was used to determine the herbicidal effects expected from the mixtures (Colby, S. R. Calculation of the synergistic and antagonistic response of herbicide combinations. Weeds 1967, 15, 20-22.). […]

COc1c(Cl)ccc(-c2nc(C(=O)O)c(Cl)c(N)c2F)c1F [Compound A Acid, 4-amino-3-chloro-6-(4-chloro-2-fluoro-3-methoxyphenyl)-5-fluoropyridine-2-carboxylic acid]
Visual Weed Control (%) - 20 DAA ECHCG Obs ([1]; 4.38 g ae/ha alone): 60% | Visual Weed Control (%) - 20 DAA ECHCG Obs ([1]; 5.3 g ae/ha alone): 65% | Visual Weed Control (%) - 20 DAA ECHCG Obs ([1]; 8.75 g ae/ha alone): 80% | Visual Weed Control (%) - 20 DAA ECHCG Obs ([1]; 10.6 g ae/ha alone): 90% | Visual Weed Control (%) - 20 DAA ECHCG Obs ([1]; 17.5 g ae/ha alone): 95% | Visual Weed Control (%) - 21 DAA ECHCG Obs ([1]; 5.3 g ae/ha alone): 65% | Visual Weed Control (%) - 21 DAA ECHCG Obs ([1]; 10.6 g ae/ha alone): 85% | Visual Weed Control (%) - 21 DAA ECHCG Obs ([1]; 21.2 g ae/ha alone): 95% | Visual Weed Control (%) - 20 DAA ECHCG Obs ([1]; 21.2 g ae/ha alone): 95%

COc1c(Cl)ccc(-c2nc(C(=O)OCc3ccccc3)c(Cl)c(N)c2F)c1F [Compound A Benzyl Ester]
Visual Weed Control (%) - 19 DAA CYPRO Obs ([2]; 8 g ae/ha alone): 20% | Visual Weed Control (%) - 19 DAA CYPRO Obs ([2]; 16 g ae/ha alone): 88% | Visual Weed Control (%) - 19 DAA CYPRO Obs ([2]; 32 g ae/ha alone): 87% | Visual Weed Control (%) - 21 DAA CYPRO Obs ([2]; 21 DAA, 8 g ae/ha alone): 40% | Visual Weed Control (%) - 20 DAA ECHCG Obs ([1]; 4.38 g ae/ha alone): 60% and 70% | Visual Weed Control (%) - 19 DAA ECHCG Obs ([1]; 8 g ae/ha alone): 85% | Visual Weed Control (%) - 20 DAA ECHCG Obs ([1]; 8 g ae/ha alone): 70% | Visual Weed Control (%) - 22 DAA ECHCG Obs ([1]; 8 g ae/ha alone): 50% | Visual Weed Control (%) - 20 DAA ECHCG Obs ([1]; 8.75 g ae/ha alone): 85% and 80% | Visual Weed Control (%) - 19 DAA ECHCG Obs ([1]; 16 g ae/ha alone): 85% | Visual Weed Control (%) - 22 DAA ECHCG Obs ([1]; 16 g ae/ha alone): 60% | Visual Weed Control (%) - 20 DAA ECHCG Obs ([1]; 17.5 g ae/ha alone): 90% and 95% | Visual Weed Control (%) - 21 DAA ECHCG Obs ([1]; 4.38 g ae/ha alone): 70% | Visual Weed Control (%) - 21 DAA ECHCG Obs ([1]; 8.75 g ae/ha alone): 85% | Visual Weed Control (%) - 21 DAA ECHCG Obs ([1]; 17.5 g ae/ha alone): 90% | Visual Weed Control (%) - 22 DAA ECHCG Obs ([1]; 22 DAA, 8 g ae/ha alone): 45% and 50% | Visual Weed Control (%) - 22 DAA ECHCG Obs ([1]; 22 DAA, 16 g ae/ha alone): 60% | Visual Weed Control (%) - 22 DAA ECHCG Obs ([1]; 22 DAA, 32 g ae/ha alone): 90% and 95% | Visual Weed Control (%) - 19 DAA ECHCG Obs ([1]; 32 g ae/ha alone): 95%

CC(c1ccc(C(F)(F)F)nc1)S(C)(=O)=NC#N (stereo not shown) [Sulfoxaflor, N-[methyloxido[1-[6-(trifluoromethyl)-3-pyridinyl]ethyl]-λ^4-sulfanylidene]cyanamide]
Visual Weed Control (%) - 19 DAA CYPRO Obs ([2]; 37.5 g ai/ha alone): 0% | Visual Weed Control (%) - 19 DAA CYPRO Obs ([2]; 75 g ai/ha alone): 0% | Visual Weed Control (%) - 19 DAA CYPRO Obs ([2]; 150 g ai/ha alone): 0%

Reference: patent publication US9237747B2, “Herbicidal compositions comprising 4-amino-3-chloro-5-fluoro-6-(4-chloro-2-fluoro-3-methoxyphenyl) pyridine-2-carboxylic acid or a derivative thereof and insecticides” (priority 2013, dated 2016)
